Data published in patent US10787444B2, “Compounds for the modulation of myc activity” (Syros Pharmaceuticals, Inc., priority 2015, dated 2020).
Structures can show the parent of a compound that is named as a salt. Where two headings read alike, the source gives them in different places.

Legend:
c-Myc/Max/Ebox DNA = molecular target: T1, c-Myc/Max/Ebox DNA (Homo sapiens, UniProt P01106); test: c-Myc/Max/Ebox DNA AlphaScreen Assay; assay type: binding; settings: calculated IC50 class
T1 construct: his6 (cleaved yes)
T1 sequence (P01106 whole entry): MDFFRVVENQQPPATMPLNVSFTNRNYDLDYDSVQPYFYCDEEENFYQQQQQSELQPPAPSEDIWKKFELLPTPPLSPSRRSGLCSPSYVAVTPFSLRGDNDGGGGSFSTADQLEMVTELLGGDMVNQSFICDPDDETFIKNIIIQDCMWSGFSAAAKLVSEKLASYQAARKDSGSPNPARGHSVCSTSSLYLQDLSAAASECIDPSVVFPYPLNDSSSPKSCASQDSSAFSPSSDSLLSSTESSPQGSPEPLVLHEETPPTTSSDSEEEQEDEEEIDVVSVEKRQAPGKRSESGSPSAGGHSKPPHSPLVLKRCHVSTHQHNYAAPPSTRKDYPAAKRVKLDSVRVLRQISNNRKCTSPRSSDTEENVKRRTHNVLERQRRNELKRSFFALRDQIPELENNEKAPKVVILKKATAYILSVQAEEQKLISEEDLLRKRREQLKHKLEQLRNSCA
Summary of the method: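 Compounds were preincubated with free c-Myc (20 nM), biotinylated single-Ebox DNA (10 nM) and Ni acceptor beads before his6-Max (5 nM) and streptavidin donor beads were added. Buffer was 50 mM HEPES pH 8.0, 150 mM NaCl, BSA, Tween20, glycogen and DTT, with DMSO ≤2%. After 2 h incubation, AlphaScreen signal was read at 680 nm excitation and 520–620 nm emission.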

[1] = test system: human small lung cancer cell line H2171; test: Cell Viability Assay (ATPlite); assay type: cell-based; settings: read-out: H2171 Activity
Summary of the method: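 H2171 cells were plated at 20,000 cells/mL and dosed immediately by pin transfer with a 10-point dose series in DMSO. After three days at 37° C, ATPlite luminescence served as the viability readout.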

[2] = Homo sapiens, NCI-H2171, 72 h, Table 2, compounds of FIG. 1, H2171 cells, three days, ATPlite, calculated IC50 class
[3] = Table 2, compounds of FIG. 1, H2171 cells, three days, ATPlite, calculated IC50 class

## CC[C@H](C)NCCC(=O)Nc1sc2c(c1-c1nc3cc(C(F)(F)F)ccc3s1)CCN(C(C)C)C2 [Compound 578, (S)-3-(sec-butylamino)-N-(6-isopropyl-3-(5-(trifluoromethyl)benzo[d]thiazol-2-yl)-4,5,6,7-tetrahydrothieno[2,3-c]pyridin-2-yl)propanamide]
c-Myc/Max/Ebox DNA; Table 2, compounds of FIG. 1
  IC50: 300 to 1000 nM
[1]; [2]
  IC50: < 300 nM

## COCCNCCC(=O)Nc1sc2c(c1-c1nc3ccccc3s1)CCNC2 [Compound 134, N-(3-(benzo[d]thiazol-2-yl)-4,5,6,7-tetrahydrothieno[2,3-c]pyridin-2-yl)-3-((2-methoxyethyl)amino)propanamide]
c-Myc/Max/Ebox DNA; Table 2, compounds of FIG. 1
  IC50: < 300 nM
[1]; [2]
  IC50: < 300 nM

## CC(=O)Nc1sc2c(c1-c1nc3ccccc3s1)C(F)CN(C(C)C)C2 (centres unmarked) [Compound 220, N-(3-(benzo[d]thiazol-2-yl)-4-fluoro-6-isopropyl-4,5,6,7-tetrahydrothieno[2,3-c]pyridin-2-yl) acetamide]
c-Myc/Max/Ebox DNA; Table 3, compounds of FIG. 2
  IC50: 1000 to 10000 nM
[1]; Homo sapiens, NCI-H2171, 72 h
  IC50: > 10000 nM

## COCCNCCC(=O)Nc1sc2c(c1-c1nc3cc(C(F)(F)F)ccc3s1)CC(C)NC2 (single isomer, unassigned) [Compound 551, 3-((2-Methoxyethyl)amino)-N-(5-methyl-3-(5-(trifluoromethyl)benzo[d]thiazol-2-yl)-4,5,6,7-tetrahydrothieno[2,3-c]pyridin-2-yl)propanamide]
c-Myc/Max/Ebox DNA; Table 2, compounds of FIG. 1
  IC50: < 300 nM
[1]; [3]
  IC50: < 300 nM

## CC(C)NCCC(=O)Nc1sc2c(c1-c1nc3cc(NS(C)(=O)=O)ccc3s1)CCNC2 [compound 581]
c-Myc/Max/Ebox DNA; Table 2, compounds of FIG. 1
  IC50: < 300 nM
[1]; [2]
  IC50: < 300 nM

## CC(C)(C)NCCC(=O)Nc1sc2c(c1-c1nc3ccccc3s1)CCNC2 [Compound 131, N-(3-(benzo[d]thiazol-2-yl)-4,5,6,7-tetrahydrothieno[2,3-c]pyridin-2-yl)-3-(tert-butylamino)propanamide]
c-Myc/Max/Ebox DNA; Table 2, compounds of FIG. 1
  IC50: < 300 nM
[1]; [2]
  IC50: 300 to 1000 nM

## COCCNCCC(=O)Nc1sc2c(c1-c1nc3ccc(-c4ccc(C#N)nc4)cc3s1)CCNC2 [compound 391]
c-Myc/Max/Ebox DNA; Table 2, compounds of FIG. 1
  IC50: < 300 nM
[1]; [2]
  IC50: < 300 nM

## COCCNCCC(=O)Nc1sc2c(c1-c1nc3cc(F)ccc3s1)CC(C)NC2C (single isomer, unassigned) [Compound 547, N-(3-(5-Fluorobenzo[d]thiazol-2-yl)-5,7-dimethyl-4,5,6,7-tetrahydrothieno[2,3-c]pyridin-2-yl)-3-((2-methoxyethyl)amino)propanamide]
c-Myc/Max/Ebox DNA; Table 2, compounds of FIG. 1
  IC50: 1000 to 10000 nM
[1]; [3]
  IC50: < 300 nM

## CCC1Cc2c(sc(NC(=O)CCNCCOC)c2-c2nc3ccccc3s2)C(CC)N1 (single isomer, unassigned) [Compound 537, N-(3-(Benzo[d]thiazol-2-yl)-5,7-diethyl-4,5,6,7-tetrahydrothieno[2,3-c]pyridin-2-yl)-3-((2-methoxyethyl)amino)propanamide]
c-Myc/Max/Ebox DNA; Table 2, compounds of FIG. 1
  IC50: > 10000 nM
[1]; [3]
  IC50: < 300 nM

## COCCNCCC(=O)Nc1sc2c(c1-c1nc3ccc(F)cc3s1)CCNC2 [Compound 318, N-(3-(6-Fluorobenzo[d]thiazol-2-yl)-4,5,6,7-tetrahydrothieno[2,3-c]pyridin-2-yl)-3-((2-methoxyethyl)amino)propanamide]
c-Myc/Max/Ebox DNA; Table 2, compounds of FIG. 1
  IC50: 300 to 1000 nM
[1]; [2]
  IC50: < 300 nM

## COCCNCCC(=O)Nc1sc2c(c1-c1nc3ccccc3s1)CC(C)NC2C (single isomer, unassigned) [Compound 509, N-(3-(Benzo[d]thiazol-2-yl)-5,7-dimethyl-4,5,6,7-tetrahydrothieno[2,3-c]pyridin-2-yl)-3-((2-methoxyethyl)amino)propanamide]
c-Myc/Max/Ebox DNA; Table 2, compounds of FIG. 1
  IC50: 1000 to 10000 nM
[1]; [3]
  IC50: < 300 nM

## CCC(C)N(CCC(=O)Nc1sc2c(c1-c1nc3ccccc3s1)CCN(CCNC(=O)C(F)(F)F)C2)C(C)=O (centres unmarked) [Compound 319, N-(3-(Benzo[d]thiazol-2-yl)-6-(2-(2,2,2-trifluoroacetamido)ethyl)-4,5,6,7-tetrahydrothieno[2,3-c]pyridin-2-yl)-3-(N-(sec-butyl)acetamido)propanamide]
c-Myc/Max/Ebox DNA; Table 2, compounds of FIG. 1
  IC50: > 10000 nM
[1]; [2]
  IC50: 300 to 1000 nM

## COCCNCCC(=O)Nc1sc2c(c1-c1nc3c(C(F)(F)F)cccc3s1)CCNC2 [compound 611]
c-Myc/Max/Ebox DNA; Table 2, compounds of FIG. 1
  IC50: < 300 nM
[1]; [2]
  IC50: < 300 nM

## CC[C@H](C)NCCC(=O)Nc1sc2c(c1-c1nc3cc(-c4ccncc4)ccc3s1)CCNC2 [Compound 579, (S)-3-(sec-butylamino)-N-(3-(5-(pyridin-4-yl)benzo[d]thiazol-2-yl)-4,5,6,7-tetrahydrothieno[2,3-c]pyridin-2-yl)Propanamide]
c-Myc/Max/Ebox DNA; Table 2, compounds of FIG. 1
  IC50: < 300 nM
[1]; [2]
  IC50: < 300 nM

## O=C(O)CCOCCOCCOCCOCCOCCOCCNCCC(=O)Nc1sc2c(c1-c1nc3ccccc3s1)CCNC2 [Compound 623]
c-Myc/Max/Ebox DNA; Table 2, compounds of FIG. 1
  IC50: < 300 nM
[1]; [2]
  IC50: < 300 nM

## CCC(C)NCCC(=O)Nc1sc2c(c1-c1nc3cc(C)c(C)cc3s1)CCNC2 (centres unmarked) [Compound 576, 3-(sec-Butylamino)-N-(3-(5,6-dimethylbenzo[d]thiazol-2-yl)-4,5,6,7-tetrahydrothieno[2,3-c]pyridin-2-yl)propanamide]
c-Myc/Max/Ebox DNA; Table 2, compounds of FIG. 1
  IC50: < 300 nM
[1]; [2]
  IC50: < 300 nM

## COCCNCCC(=O)Nc1sc2c(c1-c1nc3c(OC)cccc3s1)CCNC2 [Compound 613, N-(3-(4-Methoxybenzo[d]thiazol-2-yl)-4,5,6,7-tetrahydrothieno[2,3-c]pyridin-2-yl)-3-((2-methoxyethyl)amino)propanamide dihydrochloride]
c-Myc/Max/Ebox DNA; Table 2, compounds of FIG. 1
  IC50: 1000 to 10000 nM
[1]; [2]
  IC50: 300 to 1000 nM

## CC(=O)Nc1sc2c(c1-c1nc3ccccc3s1)CCC(NC1CCOCC1)C2 (centres unmarked) [Compound 231, N-(3-(benzo[d]thiazol-2-yl)-6-((tetrahydro-2H-pyran-4-yl)amino)-4,5,6,7-tetrahydrobenzo[b]thiophen-2-yl)acetamide]
c-Myc/Max/Ebox DNA; Table 3, compounds of FIG. 2
  IC50: 1000 to 10000 nM
[1]; Homo sapiens, NCI-H2171, 72 h, Table 3, compounds of FIG. 2, H2171 cells, three days, ATPlite, calculated IC50 class
  IC50: < 300 nM

## CC[C@H](C)NCCC(=O)Nc1sc2c(c1-c1nc3ccccc3s1)CC(C)NC2C (single isomer, unassigned) [Compound 624]
c-Myc/Max/Ebox DNA; Table 2, compounds of FIG. 1
  IC50: < 300 nM
[1]; [3]
  IC50: < 300 nM

## COc1ccc2sc(-c3c(NC(=O)CCNC(C)C)sc4c3CCNC4)nc2c1 [compound 316]
c-Myc/Max/Ebox DNA; Table 2, compounds of FIG. 1
  IC50: < 300 nM
[1]; [2]
  IC50: < 300 nM

## COCCNCCC(=O)Nc1sc2c(c1-c1nc3cc(C(F)(F)F)ccc3s1)CC(C)NC2 (single isomer, unassigned) [Compound 550, 3-((2-Methoxyethyl)amino)-N-(5-methyl-3-(5-(trifluoromethyl)benzo[d]thiazol-2-yl)-4,5,6,7-tetrahydrothieno[2,3-c]pyridin-2-yl)propanamide]
c-Myc/Max/Ebox DNA; Table 2, compounds of FIG. 1
  IC50: < 300 nM
[1]; [2]
  IC50: < 300 nM

## O=C(CCNCCc1cccnc1)Nc1sc2c(c1-c1nc3ccccc3s1)CCNC2 [Compound 136, N-(3-(benzo[d]thiazol-2-yl)-4,5,6,7-tetrahydrothieno[2,3-c]pyridin-2-yl)-3-((2-(pyridin-3-yl)ethyl)amino) propanamide]
c-Myc/Max/Ebox DNA; Table 2, compounds of FIG. 1
  IC50: 1000 to 10000 nM
[1]; [2]
  IC50: 300 to 1000 nM

## COCCNC(=O)c1ccc2sc(-c3c(NC(=O)CCNC(C)C)sc4c3CCNC4)nc2c1 [Compound 323, 2-(2-(3-(Isopropylamino)propanamido)-4,5,6,7-tetrahydrothieno[2,3-c]pyridin-3-yl)-N-(2-methoxyethyl)benzo[d]thiazole-5-carboxamide]
c-Myc/Max/Ebox DNA; Table 2, compounds of FIG. 1
  IC50: < 300 nM
[1]; [2]
  IC50: < 300 nM

## CC(C)NCCC(=O)Nc1sc2c(c1-c1nc3c(S(C)(=O)=O)cccc3s1)CCNC2 [compound 553]
c-Myc/Max/Ebox DNA; Table 2, compounds of FIG. 1
  IC50: < 300 nM
[1]; [2]
  IC50: < 300 nM

## CC(C)NCCC(=O)Nc1sc2c(c1-c1nc3ccccc3s1)CCN(C(C)C)C2 [Compound 132, N-(3-(benzo[d]thiazol-2-yl)-6-isopropyl-4,5,6,7-tetrahydrothieno[2,3-c]pyridin-2-yl)-3-(isopropylamino)propanamide]
c-Myc/Max/Ebox DNA; Table 2, compounds of FIG. 1
  IC50: 300 to 1000 nM
[1]; [2]
  IC50: 300 to 1000 nM

## CC[C@H](C)NCCC(=O)Nc1sc2c(c1-c1nc3ccccc3s1)CCN(C(C)C)C2 [Compound 135, (S)—N-(3-(benzo[d]thiazol-2-yl)-6-isopropyl-4,5,6,7-tetrahydrothieno[2,3-c]pyridin-2-yl)-3-(sec-butylamino)propanamide]
c-Myc/Max/Ebox DNA; Table 2, compounds of FIG. 1
  IC50: < 300 nM
[1]; [2]
  IC50: < 300 nM

## COCCNCCC(=O)Nc1sc2c(c1-c1nc3ccccc3s1)CC(C)NC2C (centres unmarked) [Compound 507, N-(3-(Benzo[d]thiazol-2-yl)-5,7-dimethyl-4,5,6,7-tetrahydrothieno[2,3-c]pyridin-2-yl)-3-((2-methoxyethyl)amino)propanamide]
c-Myc/Max/Ebox DNA; Table 2, compounds of FIG. 1
  IC50: 300 to 1000 nM
[1]; [3]
  IC50: < 300 nM

## COCCNCCC(=O)Nc1sc2c(c1-c1nc3cc(-c4cnn(C)c4)ccc3s1)CC(C)NC2C (single isomer, unassigned) [Compound 566, N-(5,7-Dimethyl-3-(5-(1-methyl-1H-pyrazol-4-yl)benzo[d]thiazol-2-yl)-4,5,6,7-tetrahydrothieno[2,3-c]pyridin-2-yl)-3-((2-methoxyethyl)amino)propanamide]
c-Myc/Max/Ebox DNA; Table 2, compounds of FIG. 1
  IC50: 1000 to 10000 nM
[1]; [3]
  IC50: < 300 nM

## COCCNCCC(=O)Nc1sc2c(c1-c1nc3cc(-c4cccc(C(=O)N(C)C)c4)ccc3s1)CCNC2 [compound 394]
c-Myc/Max/Ebox DNA; Table 2, compounds of FIG. 1
  IC50: < 300 nM
[1]; [2]
  IC50: < 300 nM

## CC(C)NCCC(=O)Nc1sc2c(c1-c1nc3cc(C(=O)O)ccc3s1)CCNC2 [Compound 320, 2-(2-(3-(Isopropylamino)propanamido)-4,5,6,7-tetrahydrothieno[2,3-c]pyridin-3-yl)benzo[d]thiazole-5-carboxylic acid]
c-Myc/Max/Ebox DNA; Table 2, compounds of FIG. 1
  IC50: 300 to 1000 nM
[1]; [2]
  IC50: < 300 nM

## CCC(C)NCCC(=O)Nc1sc2c(c1-c1nc3ccccc3s1)CCN(C1COC1)C2 (centres unmarked) [Compound 137, N-(3-(benzo[d]thiazol-2-yl)-6-(oxetan-3-yl)-4,5,6,7-tetrahydrothieno[2,3-c]pyridin-2-yl)-3-(sec-butylamino)propanamide]
c-Myc/Max/Ebox DNA; Table 2, compounds of FIG. 1
  IC50: 1000 to 10000 nM
[1]; [2]
  IC50: > 10000 nM
